Assay results from patent US20200362303A1, “MAINTENANCE-AND-AMPLIFICATION METHOD AND DIFFERENTIATION INDUCTION METHOD FOR PRIMORDIAL GERM CELLS/PRIMORDIAL GERM CELL-LIKE CELLS” (KYOTO UNIVERSITY, priority 2017, published 2020).

Key:
[1] = test system: cultured PGCLC; assay: Immunofluorescence analysis of STRA8, SCP3, DDX4 in cultured PGCLC; assay type: cell-based, mouse; conditions: cultured PGCLC, c9; BMP4, 5, 7 combined with RA; BMS493 with BMP2; LDN193189 with RA and BMP2
Procedure: (§1) The PGC/PGCLC expansion medium was constituted of 10% KSR, 2.5% FBS, 0.1 mM NEAA, 1 mM sodium pyruvate, 2 mM L-glutamine, 0.1 mM 2-mercaptoethanol, 100 U/ml penicillin, 0.1 mg/ml […] streptomycin, […] forskolin, and 10 μM rolipram. The entire medium was changed every 2 days from c3. Cytokines/compounds for induction of female fate were provided from c3 to the end of culture. RA and BMP concentrations used were 100 nM and 300 ng/ml, respectively, unless otherwise specified. Brightfield and fluorescence images were captured using an IX73 inverted microscope (Olympus).
Immunofluorescence (IF) analysis was performed as described previously (Hayashi et al, 2012). The following primary antibodies were used: chicken anti-GFP (ab13970; Abeam), rabbit anti-DDX4 (ab13840; Abeam), mouse anti-DDX4 (ab27591; Abeam), rabbit anti-DAZL (ab34129; Abeam), goat anti-DAZL (sc-27333; Santa Cruz), rabbit anti-STRA8 (ab49602; Abeam), mouse anti-SYCP3 (ab97672; Abeam) and rabbit anti-TEX14 (ab41733; Abeam)IgG. The following secondary antibodies were used: Alexa Fluor 488-goat anti-mouse or chicken IgG; Alexa Fluor 568-goat anti-rabbit IgG and Alexa Fluor 633-goat anti-mouse, anti-chicken IgG; Alexa Fluor 488-donkey anti-mouse IgG; Alexa Fluor 568-donkey anti-rabbit IgG and Alexa Fluor 633-donkey anti-goat IgG. IF images were acquired using a confocal microscope [FV1000 (Olympus) or LSM780 (Zeiss)].

[2] = test system: PGCLC; assay: CsA or FK506 alone at various concentrations on PGCLC proliferation (fold difference d7/d1); assay type: cell-based, mouse; conditions: 10, 5, 1, 0 μM, in place of FR10
[3] = test system: BV (+) d4 PGCLCs; assay: Compound library screening for PGCLC proliferation (BV fluorescence by cell analyzer); assay type: cell-based, mouse; conditions: 10 μM; day 7 of culture
Procedure: d4 PGCLC was seeded by FACS on m220-5 feeders in 96-well plates and BV fluorescence was monitored by cell analyzer (Cellavista; SynenTec). Fluorescence photograph for BV was taken by Cellavista cell analyzer with the following settings: 10× objectives; exposure time: 140 μsec; gain: 4×; binning: 4×4; excitation: 500/24 nm; emission: 542/27 nm. BV fluorescence was detected using the following algorithm/attribute parameters: sensitivity: 10; region merging: 200; min. granule intensity: 50; well edge distance: 200; contrast: 1; size: 3,000; intensity: 255; roughness: 500; granularity: 100; granule intensity: 255; granule count: 10,000; longishness: 100; compactness: 1. The value of “cell nucleus” was used for the detection of BV fluorescence.
The compound library was screened at concentrations of 10 μM and 1 μM. […] 200 BV (+) d4 PGCLCs induced from BDF1-2 ESC were seeded in the wells of a 96-well plate, and BV fluorescence was measured on the Cellavista cell analyzer on day 1 of culture (c1), c3, c5 and c7. The value of “cell nucleus” was used for the detection of BV fluorescence. […] For each compound, the fold difference in BV fluorescence between c1 and c7 was calculated for each compound and compounds with a fold difference value exceeding 3SD of the mean of the negative control were identified as those that potentiate PGCLC proliferation.

[4] = test system: female germ cell fate in embryos; assay: Administration of LDN193189 to pregnant females, germ cell fate at E14.5; assay type: in vivo, mouse
Procedure: To administer LDN-193189 to pregnant females (ICR), LDN-193189 (sm10559; Sigma-Aldrich) is dissolved in sterile water, and 2.5 mg LDN-193189 was injected intraperitoneally every 12 hours from E11 to E14 per kg body weight.
(§2) qPCR was performed using CFX384 (Bio-Rad) and Power SYBR Green (ABI, Foster City, Calif.) according to the manufacturer's instructions. Template cDNA was prepared as described in the “Transcriptome analysis” section and the primers used are listed in Primers.

[5] = test system: BMP signaling pathway; assay: BMP signaling in PGCLC: pSMAD1/5/8 (Western blot) and Id1/Id2 expression; assay type: cell-based, mouse; conditions: PGCLC stimulated by RA and BMP2
Procedure: For Western blot analysis, 5×10^4 cells were lysed in SDS sample buffer [62.5 mM Tris-HCl (pH 6.8), 2% SDS, 10% glycerol, 0.025% bromophenol blue and 0.14 M-mercaptoethanol] at 90° C. for 5 min. For detection of phosphorylated (p)SMAD1/5/8, the cells were treated with PhosSTOP (Roche) and complete protease inhibitor cocktail (Roche) before lysis. The extracted protein was separated by SuperSep Ace 10-20% gel (Wako), blotted on iBlot2 PVDF transfer membrane (Thermo Fisher) by iBlot2 dry blotting system (Thermo Fisher), and incubated with the primary antibody: rabbit anti-STRA8 IgG (ab49405; Abeam), mouse anti-α tubulin (T9026; Sigma-Aldrich), rabbit anti-pSMAD1/5/8 IgG (#9511; CST), or rabbit anti-SMAD1 IgG (#97435 CST). Primary antibodies were detected with goat anti-rabbit IgG or sheep anti-mouse IgG conjugated to HRP (A0545, M8642; Sigma-Aldrich), followed by Chemi-Lumi One Super (Nacalai). Chemiluminescence image acquisition and analysis was performed using the Fusion Solo system and Fusion-Capt software (M & S Instruments).
as §2

[6] = test system: d4 PGCLC; assay: Measurement of intracellular cAMP concentration (cAMPGlo Max assay); assay type: cell-based, mouse; conditions: pretreated 30 min at room temperature
Procedure: The intracellular cAMP concentration was measured using cAMPGlo Max assay kit (Promega) according to the manufacturer's instructions. A standard curve using purified cAMP was prepared by calculating the Δrelative light unit (ΔRLU) (RLU [0 nM]-RLU [X nM]). For each sample, 1×10^4 d4 PGCLC was pretreated with forskolin and/or rolipram for 30 min at room temperature and the ΔRLU (RLU [untreated sample-RLU [treated sample]) was calculated. An increase in the intracellular cAMP level due to chemical treatments was inferred from the cAMP standard curve. Three biological replicates were analyzed for each sample.

[7] = test system: d4 PGCLC; assay: Expansion culture of d4 PGCLC on m220-5 feeder (cell number fold increase); assay type: cell-based, mouse; conditions: 10 μM alone; BVSC BDF1-2; SCF, m220 feeder
Procedure: Since the m220-5 feeder treated with MMC was vulnerable to forskolin and rolipram, m220-5 cells were subcultured 3 times with both forskolin and rolipram each at 10 μM and adapted to these compounds before MMC treatment (1-2 μg/ml for 2 hr). d4 PGCLC or E9.5 PGC(BDF1×Stella-EGFP) was selected by FACS, and the cells were seeded on m220-5 cells in GMEM medium containing 10% KSR, 0.1 mM NEAA, 1 mM sodium pyruvate, 0.1 mM 2-mercaptoethanol, 100 U/ml penicillin, 0.1 mg/ml streptomycin, 2 mM L-glutamine, 2.5% FCS, 100 ng/ml SCF, 10 μM forskolin, and 10 μM rolipram. Half of the culture medium was changed every 2 days.
Expansion culture of PGC/PGCLC to investigate the combined effect of cyclosporin A (CsA) was performed as in Example [I], except that 5 μM CsA was added to the medium in addition to 10 μM forskolin and 10 μM loripram (FR10).

[8] = test system: PGCLC induced from BVSCDT ESC(XY); assay: Screening for factors inducing female germ cell fate: DT and BV expression by FACS at c7; assay type: cell-based, mouse; conditions: added from c3, read at c7; RA 100 nM, cytokines 500 ng/ml; BMPs in combination with RA
Procedure: as §1
The preparation of d4/c0 PGCLC for FACS is described in “ESC culture/induction and PGCLC induction/culture”. To isolate germ cells in vivo, fetal gonads of BVSC, VR or SG mice were cut and processed for FACS according to the procedure described for d4/c0 PGCLC. Culture PGCLC was also prepared by the same method except that, after dissociation, the cells were washed with 0.1% BSA-DMEM containing 100 μg/ml DNase (Sigma-Aldrich), lysed DNA from dead cells was digested to prevent the formation of cell/debris clumps. Fluorescent activity of BV/SG, SC, or DT/VR was detected with FITC, Horizon V500 or PE-Texas Red channels, respectively. FACS data was analyzed using FlowJo or FACS Diva software package.
In the signal inhibitory experiment, LDN193189 (#04-0074; Stemgent) and BMS493 (B6688; Sigma-Aldrich) dissolved in DMSO were used as ALK2/3 inhibitor and RAR inhibitor, respectively.

CC1(C)CC=C(C#Cc2ccccc2)c2cc(/C=C/c3ccc(C(=O)O)cc3)ccc21 [BMS493]
induction of VR/DDX4 and SCP3 (+) cells (meiotic entry) [1]: abolished upregulation of VR/DDX4 as well as induction of SCP3

C=CC[C@@H]1/C=C(\C)C[C@H](C)C[C@H](OC)[C@H]2O[C@@](O)(C(=O)C(=O)N3CCCC[C@H]3C(=O)O[C@H](/C(C)=C/[C@@H]3CC[C@@H](O)[C@H](OC)C3)[C@H](C)[C@@H](O)CC1=O)[C@H](C)C[C@@H]2OC [FK506, tacrolimus]
proliferative effect on PGCLCs [2]: did not have a proliferative effect

COc1cccc(Nc2c(C(N)=O)cnc3c(C)cc(S(=O)(=O)c4cccc(C(=O)N(C)C)c4)cc23)c1 [GSK256066]
colony formation of BV(+) cells [3]: formation of plural colonies with unique flat morphology

c1ccc2c(-c3cnn4cc(-c5ccc(N6CCNCC6)cc5)cnc34)ccnc2c1 [LDN193189]
induction of VR/DDX4 and SCP3 (+) cells (meiotic entry) [1]: blocked RA- and BMP2-induced VR activation and meiotic entry in a dose-dependent manner | progression to female germ cell fate ([4]; every 12 hr from E11.5 to E14.0, read at E14.5): caused a significant impairment of progression to female germ cell fate | expression of key genes of late PGC/female germ cell development (qPCR) ([4]; female VR(+) cells at E14.5): up-regulated key genes in late PGC/female germplasm development | male germ cell development (qPCR) ([4]; male VR(+) cells at E14.5): unaffected | pSMAD1/5/8 and Id1, Id2 expression [5]: blocked such effects

C=C[C@@]1(C)CC(=O)[C@]2(O)[C@@]3(C)[C@@H](O)CCC(C)(C)[C@@H]3[C@H](O)[C@H](OC(C)=O)[C@@]2(C)O1 [forskolin]
cAMP concentration in PGCLC [6]: about 4 nM/1×10^4 d4 PGCLC

COc1ccc(C2CNC(=O)C2)cc1OC1CCCC1 (centres unmarked) [rolipram]
cAMP concentration in PGCLC [6]: about 4 nM/1×10^4 d4 PGCLC | effect on proliferation of d4 PGCLC (compound alone) [7]: relatively mild

B1: BMP5: bone morphogenetic protein 5 cytokine (R&D Systems) (protein, UniProt P22003 317-454, looked up)
Bone morphogenetic protein 5: AANKRKNQNRNKSSSHQDSSRMSSVGDYNTSEQKQACKKHELYVSFRDLGWQDWIIAPEGYAAFYCDGECSFPLNAHMNATNHAIVQTLVHLMFPDHVPKPCCAPTKLNAISVLYFDDSSNVILKKYRNMVVRSCGCH
induction of VR/DDX4 and SCP3 (+) cells (meiotic entry) [1]: able to induce VR/DDX4 and SCP3(+) cells | DT and BV expression in BV (+) cells [8]: strongly activated DT and simultaneously down-regulated BV

B2: BMP4: bone morphogenetic protein 4 cytokine (R&D Systems) (protein, UniProt P12644 293-408, looked up)
Bone morphogenetic protein 4: SPKHHSQRARKKNKNCRRHSLYVDFSDVGWNDWIVAPPGYQAFYCHGDCPFPLADHLNSTNHAIVQTLVNSVNSSIPKACCVPTELSAISMLYLDEYDKVVLKNYQEMVVEGCGCR
induction of VR/DDX4 and SCP3 (+) cells (meiotic entry) [1]: able to induce VR/DDX4 and SCP3(+) cells | DT and BV expression in BV (+) cells [8]: strongly activated DT and simultaneously down-regulated BV

B3: BMP7: bone morphogenetic protein 7 cytokine (R&D Systems) (protein, UniProt P18075 293-431, looked up)
Bone morphogenetic protein 7: STGSKQRSQNRSKTPKNQEALRMANVAENSSSDQRQACKKHELYVSFRDLGWQDWIIAPEGYAAYYCEGECAFPLNSYMNATNHAIVQTLVHFINPETVPKPCCAPTQLNAISVLYFDDSSNVILKKYRNMVVRACGCH
induction of VR/DDX4 and SCP3 (+) cells (meiotic entry) [1]: able to induce VR/DDX4 and SCP3(+) cells | DT and BV expression in BV (+) cells [8]: strongly activated DT and simultaneously down-regulated BV
